Source: patent US9247759B2, “Identification of human T2R receptors that respond to bitter compounds that elicit the bitter taste in compositions, and the use thereof in assays to identify compounds that inhibit (block) bitter taste in compositions and use thereof” (SENOMYX, INC., priority 2007, dated 2016)
Read-outs that look alike come from different tables or passages of the source.

What was measured:
hT2R4 = hT2R4 (Homo sapiens (Human), UniProt Q9NYW5); assay: hT2R panel inhibition, transient HEK293 G16g44, agonist Chloroquine pH6.5 5 mM; format: cell-based; details: HEK293, compound at 25 μM
Chain of hT2R4 (Q9NYW5 whole entry): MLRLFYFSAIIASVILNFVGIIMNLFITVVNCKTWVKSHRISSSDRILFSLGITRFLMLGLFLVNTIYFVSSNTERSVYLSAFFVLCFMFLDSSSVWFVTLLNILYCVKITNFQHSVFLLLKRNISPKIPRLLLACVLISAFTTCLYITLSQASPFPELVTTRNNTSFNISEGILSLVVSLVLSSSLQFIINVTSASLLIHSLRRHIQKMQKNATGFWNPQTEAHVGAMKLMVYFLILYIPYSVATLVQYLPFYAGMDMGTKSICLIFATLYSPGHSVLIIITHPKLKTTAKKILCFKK
Procedure: Specifically, in order to evaluate the inhibitory selectivity of the Compound C compound, this compound was tested against 22 human T2Rs which were deorphaned by Senomyx. These receptors and the bitter ligands that activate these human T2Rs are reported in earlier patent applications which are incorporated by reference herein. These 22 human T2Rs are hT2R1, 3, 4, 5, 7, 8, 9, 10, 13, 14, 16, 44, 51, 54, 55, 61, 63, 64, 65, 67, 71 and 75. The amino acid and nucleic acid sequences of all of these T2Rs may be found in these earlier patent applications. These human T2Rs were each individually transiently transfected into HEK293 cells that stably express the promiscuous G protein G16g44 and functional assays were effected using these receptors as disclosed in these same patent applications. […] The ligands were used at EC80 concentration levels. The list of bitter ligands utilized and the tested ligand concentrations are contained in Table 5 of this example.
Relating to the foregoing, FIG. 5 contains experimental results wherein Compound C was tested with different agonist compounds. The inhibition activity is represented by the reduction of receptor activity in the presence of Compound C. […] These 13 hT2Rs are hT2R3, 7, 10, 14, 16, 44, 51, 55, 61, 63, 64, 65, and 71.

hT2R55 = assay: hT2R panel inhibition, transient HEK293 G16g44, agonist Cinchonine 150 μM; format: cell-based, human; details: compound at 25 μM; for screening result against bitter receptor 55: receptor activated to EC80 with the corresponding agonist
Procedure, shortened: (§1)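 Agonist concentrations were set at EC80 for each receptor. Activity was compared with and without the test compound, and the reduction recorded as inhibition, across 22 individually transfected human T2Rs.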

hT2R61 = hT2R61 (Homo sapiens (Human), UniProt P59537); assay: hT2R panel inhibition, transient HEK293 G16g44, agonist Aristolochic Acid 25 nM; format: cell-based; details: HEK293, compound at 25 μM
Chain of hT2R61 (P59537 whole entry): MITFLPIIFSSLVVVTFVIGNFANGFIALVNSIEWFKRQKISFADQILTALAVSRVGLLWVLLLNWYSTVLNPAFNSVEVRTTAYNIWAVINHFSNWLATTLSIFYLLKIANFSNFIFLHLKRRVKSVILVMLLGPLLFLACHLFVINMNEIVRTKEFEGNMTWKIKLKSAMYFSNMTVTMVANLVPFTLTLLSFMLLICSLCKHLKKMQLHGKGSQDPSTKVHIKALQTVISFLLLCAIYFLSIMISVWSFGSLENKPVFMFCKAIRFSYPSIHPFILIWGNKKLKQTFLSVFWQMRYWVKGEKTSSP
Procedure, shortened: as §1

hT2R64 = hT2R64 (Homo sapiens (Human), UniProt P59538); assay: hT2R panel inhibition, transient HEK293 G16g44, agonist Aristolochic Acid 1 μM; format: cell-based; details: HEK293, compound at 25 μM
Chain of hT2R64 (P59538 whole entry): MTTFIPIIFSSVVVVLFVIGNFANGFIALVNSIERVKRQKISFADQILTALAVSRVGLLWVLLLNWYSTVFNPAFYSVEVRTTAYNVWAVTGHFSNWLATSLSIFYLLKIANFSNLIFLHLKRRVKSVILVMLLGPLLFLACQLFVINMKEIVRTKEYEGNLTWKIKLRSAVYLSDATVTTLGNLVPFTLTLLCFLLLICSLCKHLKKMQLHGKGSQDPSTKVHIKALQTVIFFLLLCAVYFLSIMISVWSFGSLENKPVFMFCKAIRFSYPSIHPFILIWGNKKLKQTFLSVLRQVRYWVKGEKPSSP
Procedure, shortened: as §1

hT2R14 [1] = biological target: T1, hT2R14 (Homo sapiens (Human), UniProt Q9NYV8); assay: hT2R14 antagonist high-throughput FLIPR assay, stable cell line with G16g44, agonist aristolochic acid; format: cell-based; details: read-out: IC50 on hT2R14 bitter receptor
T1 sequence (Q9NYV8 whole entry): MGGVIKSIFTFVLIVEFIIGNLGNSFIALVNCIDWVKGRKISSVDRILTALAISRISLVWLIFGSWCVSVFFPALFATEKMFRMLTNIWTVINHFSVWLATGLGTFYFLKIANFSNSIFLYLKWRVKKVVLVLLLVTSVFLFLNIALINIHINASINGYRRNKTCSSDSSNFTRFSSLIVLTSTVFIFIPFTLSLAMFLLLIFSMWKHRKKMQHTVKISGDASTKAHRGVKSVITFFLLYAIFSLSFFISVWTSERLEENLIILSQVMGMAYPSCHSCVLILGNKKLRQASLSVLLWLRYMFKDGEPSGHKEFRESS
Procedure, shortened: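 HEK293 cells stably expressing hT2R14 with chimeric G16g44 were stimulated with aristolochic acid (3 μM), giving 70-80% of maximal receptor activity. Test compounds were added together with the agonist, and antagonism was read as fluorescent calcium signal on FLIPR.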

hT2R71 = hT2R71 (Homo sapiens (Human), UniProt P59536); assay: hT2R panel inhibition, transient HEK293 G16g44, agonist Picric Acid 10 μM; format: cell-based; details: HEK293, compound at 25 μM
Chain of hT2R71 (P59536 whole entry): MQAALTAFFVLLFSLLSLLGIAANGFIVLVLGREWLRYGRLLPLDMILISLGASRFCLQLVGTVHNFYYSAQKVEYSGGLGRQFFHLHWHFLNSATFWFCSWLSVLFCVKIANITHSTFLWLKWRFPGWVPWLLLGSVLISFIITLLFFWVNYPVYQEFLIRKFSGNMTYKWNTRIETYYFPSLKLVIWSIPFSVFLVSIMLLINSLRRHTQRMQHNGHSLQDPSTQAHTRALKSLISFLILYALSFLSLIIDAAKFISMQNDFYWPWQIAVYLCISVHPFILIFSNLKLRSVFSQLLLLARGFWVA
Procedure, shortened: as §1

hT2R7 = hT2R7 (Homo sapiens (Human), UniProt Q9NYW3); assay: hT2R panel inhibition, transient HEK293 G16g44, agonist Chloroquine pH6.5 10 mM; format: cell-based; details: HEK293, compound at 25 μM
Chain of hT2R7 (Q9NYW3 whole entry): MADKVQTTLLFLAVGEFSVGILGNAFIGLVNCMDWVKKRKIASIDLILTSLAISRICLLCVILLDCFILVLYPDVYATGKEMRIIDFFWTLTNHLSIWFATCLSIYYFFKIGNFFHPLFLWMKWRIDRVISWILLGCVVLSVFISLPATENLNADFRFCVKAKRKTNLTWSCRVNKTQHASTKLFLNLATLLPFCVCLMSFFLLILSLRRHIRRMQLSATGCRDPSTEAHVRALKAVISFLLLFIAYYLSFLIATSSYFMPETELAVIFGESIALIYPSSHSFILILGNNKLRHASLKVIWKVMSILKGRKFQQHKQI
Procedure, shortened: as §1

hT2R44 = assay: hT2R panel inhibition, transient HEK293 G16g44, agonist Denatonium 0.5 μM; format: cell-based, human; details: compound at 25 μM; for screening result against bitter receptor 44: receptor activated to EC80 with the corresponding agonist
Procedure, shortened: as §1

hT2R63 = assay: hT2R panel inhibition, transient HEK293 G16g44, agonist Caffeine 1 mM or Andrographolide 100 μM; format: cell-based, human; details: compound at 25 μM; for screening result against bitter receptor 63: receptor activated to EC80 with the corresponding agonist
Procedure, shortened: as §1

hT2R14 [2] = biological target: T1, hT2R14; assay: hT2R panel inhibition, transient HEK293 G16g44, agonist Aristolochic Acid 2 μM; format: cell-based; details: HEK293, compound at 25 μM
Procedure, shortened: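 Each hT2R was transiently transfected into HEK293 cells stably expressing G16g44 and assayed functionally for inhibition of agonist response. Agonists were applied at EC80: andrographolide at 0.5 mM for hT2R8 and aristolochic acid at 2 μM for hT2R14.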

hT2R54 = assay: hT2R panel inhibition, transient HEK293 G16g44, agonist Ranitidine 5 mM; format: cell-based, human; details: compound at 25 μM
Procedure, shortened: as §1

hT2R16 = hT2R16 (Homo sapiens (Human), UniProt Q9NYV7); assay: hT2R panel inhibition, transient HEK293 G16g44, agonist Salicin 1 mM; format: cell-based; details: HEK293, compound at 25 μM
Chain of hT2R16 (Q9NYV7 whole entry): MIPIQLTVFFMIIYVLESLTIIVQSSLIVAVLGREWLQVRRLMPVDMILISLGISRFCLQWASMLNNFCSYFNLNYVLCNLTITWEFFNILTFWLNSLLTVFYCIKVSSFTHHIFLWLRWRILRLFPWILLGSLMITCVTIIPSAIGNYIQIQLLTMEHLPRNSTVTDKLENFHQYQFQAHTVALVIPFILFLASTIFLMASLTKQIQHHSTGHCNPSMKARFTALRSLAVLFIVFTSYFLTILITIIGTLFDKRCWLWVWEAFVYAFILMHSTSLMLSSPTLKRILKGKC
Procedure, shortened: as §1

hT2R3 = hT2R3 (Homo sapiens (Human), UniProt Q9NYW6); assay: hT2R panel inhibition, transient HEK293 G16g44, agonist Chloroquine pH6.5 50 μM; format: cell-based; details: HEK293, compound at 25 μM
Chain of hT2R3 (Q9NYW6 whole entry): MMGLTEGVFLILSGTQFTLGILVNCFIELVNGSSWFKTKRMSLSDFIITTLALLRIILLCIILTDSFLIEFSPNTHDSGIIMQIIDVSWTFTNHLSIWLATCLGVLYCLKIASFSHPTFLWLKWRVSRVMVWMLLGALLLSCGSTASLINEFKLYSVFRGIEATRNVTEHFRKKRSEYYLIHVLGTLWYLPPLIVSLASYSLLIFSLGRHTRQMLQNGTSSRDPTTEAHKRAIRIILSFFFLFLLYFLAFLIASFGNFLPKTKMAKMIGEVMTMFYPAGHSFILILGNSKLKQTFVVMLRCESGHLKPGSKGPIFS
Procedure, shortened: as §1

hT2R10 = hT2R10 (Homo sapiens (Human), UniProt Q9NYW0); assay: hT2R panel inhibition, transient HEK293 G16g44, agonist Strychnine 50 μM; format: cell-based
Chain of hT2R10 (Q9NYW0 whole entry): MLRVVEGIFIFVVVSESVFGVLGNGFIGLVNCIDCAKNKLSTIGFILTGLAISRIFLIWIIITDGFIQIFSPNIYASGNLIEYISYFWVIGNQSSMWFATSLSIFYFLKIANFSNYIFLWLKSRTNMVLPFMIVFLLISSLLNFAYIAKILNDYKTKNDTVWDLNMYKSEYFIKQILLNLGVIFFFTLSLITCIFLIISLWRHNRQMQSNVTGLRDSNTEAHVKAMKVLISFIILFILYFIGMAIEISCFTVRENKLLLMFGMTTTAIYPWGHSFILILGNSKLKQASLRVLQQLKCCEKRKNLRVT

hT2R51 = hT2R51 (Homo sapiens (Human), UniProt P59533); assay: hT2R panel inhibition, transient HEK293 G16g44, agonist Prop 2.5 μM; format: cell-based; details: HEK293, compound at 25 μM
Chain of hT2R51 (P59533 whole entry): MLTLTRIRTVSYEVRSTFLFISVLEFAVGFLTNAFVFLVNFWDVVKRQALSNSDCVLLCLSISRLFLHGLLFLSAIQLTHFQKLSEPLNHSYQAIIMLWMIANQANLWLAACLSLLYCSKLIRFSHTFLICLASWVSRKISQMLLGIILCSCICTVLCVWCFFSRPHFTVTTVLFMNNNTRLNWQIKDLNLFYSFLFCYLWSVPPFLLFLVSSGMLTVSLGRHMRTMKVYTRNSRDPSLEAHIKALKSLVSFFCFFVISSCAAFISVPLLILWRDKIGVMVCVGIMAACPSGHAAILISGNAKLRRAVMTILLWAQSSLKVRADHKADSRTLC
Procedure, shortened: as §1

hT2R5 = hT2R5 (Homo sapiens (Human), UniProt Q9NYW4); assay: hT2R panel inhibition, transient HEK293 G16g44, agonist Picoline 10 mM; format: cell-based; details: HEK293, compound at 25 μM
Chain of hT2R5 (Q9NYW4 whole entry): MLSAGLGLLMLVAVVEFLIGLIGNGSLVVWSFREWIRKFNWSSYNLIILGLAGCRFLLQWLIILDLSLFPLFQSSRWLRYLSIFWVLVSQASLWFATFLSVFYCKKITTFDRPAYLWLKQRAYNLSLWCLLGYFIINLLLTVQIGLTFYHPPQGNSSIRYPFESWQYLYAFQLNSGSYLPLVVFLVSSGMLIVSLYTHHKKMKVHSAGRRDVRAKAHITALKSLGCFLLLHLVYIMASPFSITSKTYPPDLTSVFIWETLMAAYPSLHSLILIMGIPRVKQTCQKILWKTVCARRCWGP
Procedure, shortened: as §1

hT2R65 = assay: hT2R panel inhibition, transient HEK293 G16g44, agonist Oleuropein 1 mM; format: cell-based, human; details: compound at 25 μM
Procedure, shortened: as §1

hT2R67 = assay: hT2R panel inhibition, transient HEK293 G16g44, agonist Andrographolide 5 μM; format: cell-based, human; details: compound at 25 μM; receptor activated to EC80 with agonist
Procedure, shortened: as §1

[3] = receptor activated to EC80 with the corresponding agonist, class symbols, read-out: screening result against bitter receptor 4
[4] = receptor activated to EC80 with the corresponding agonist, read-out: screening result against bitter receptor 61
[5] = receptor activated to EC80 with the corresponding agonist, read-out: screening result against bitter receptor 64
[6] = receptor activated to EC80 with the corresponding agonist, read-out: screening result against bitter receptor 71
[7] = receptor activated to EC80 with the corresponding agonist, read-out: screening result against bitter receptor 7
[8] = receptor activated to EC80 with the corresponding agonist, read-out: screening result against bitter receptor 14
[9] = receptor activated to EC80 with the corresponding agonist
[10] = receptor activated to EC80 with the corresponding agonist, read-out: screening result against bitter receptor 16
[11] = receptor activated to EC80 with the corresponding agonist, read-out: screening result against bitter receptor 3
[12] = receptor activated to EC80 with the corresponding agonist, read-out: screening result against bitter receptor 5
[13] = receptor activated to EC80 with agonist

Compound | inhibition at 25 µM (hT2R4; [3]) | screening result against bitter receptor 55 (hT2R55) | inhibition at 25 µM (hT2R61; [4]) | inhibition at 25 µM (hT2R64; [5]) | IC50 (hT2R14 [1]) | inhibition at 25 µM (hT2R71; [6]) | inhibition at 25 µM (hT2R7; [7]) | screening result against bitter receptor 44 (hT2R44) | screening result against bitter receptor 63 (hT2R63) | inhibition at 25 µM (hT2R14 [2]; [8]) | inhibition at 25 µM (hT2R16; [10]) | inhibition at 25 µM (hT2R3; [11]) | other results
O=C(O)C1CCC(CN(Cc2ccc(F)cc2)S(=O)(=O)Cc2ccccc2)CC1 (stereo not drawn) [Example 5-24, 4-((N-(4-fluorobenzyl)-1-phenylmethylsulfonamido)methyl)-cyclohexanecarboxylic acid] | 20 to 40% | ++ (40% to 60% inhibition = ++) | > 80% | 60 to 80% | 9.57 µM | 20 to 40% | 20 to 40% | + (20% to 40% inhibition = +) | + (20% to 40% inhibition = +) | – | – | – | –
O=C(O)C1CCC(CN(Cc2ccc(F)cc2)S(=O)(=O)c2ccccn2)CC1 (stereo not drawn) [Example 5-53, 4-((N-(4-fluorobenzyl)pyridine-2-sulfonamido)methyl)cyclohexanecarboxylic acid] | 20 to 40% | – | – | 40 to 60% | – | 20 to 40% | 20 to 40% | – | ++ (40% to 60% inhibition = ++) | 40 to 60% | – | – | –
COc1ccc(CN(Cc2ccc(OC)c(OC)c2)S(=O)(=O)c2ccc(C(=O)O)cc2)cc1 [Example 5-40, 4-(N-(3,4-dimethoxybenzyl)-N-(4-methoxybenzyl)sulfamoyl)benzoic acid] | 20 to 40% | ++++ (80% or greater inhibition = ++++) | > 80% | 60 to 80% | 1.47 µM | 40 to 60% | – | +++ (60% to 80% inhibition = +++) | ++++ (80% or greater inhibition = ++++) | > 80% | 20 to 40% | 20 to 40% | screening result against bitter receptor 54 (hT2R54; [9]): + (20% to 40% inhibition = +); inhibition at 25 µM (hT2R10; HEK293, read-out: screening result against bitter receptor 10, compound at 25 μM, receptor activated to EC80 with the corresponding agonist): 40 to 60%; inhibition at 25 µM (hT2R51; receptor activated to EC80 with the corresponding agonist, read-out: screening result against bitter receptor 51): 20 to 40%; inhibition at 25 µM (hT2R5; [12]): 20 to 40%
COc1ccc(CN(Cc2ccc(NC(C)=O)cc2)S(=O)(=O)c2ccc(C(=O)O)cc2)cc1 [Example 5-26, 4-(N-(4-acetamidobenzyl)-N-(4-methoxybenzyl)sulfamoyl)benzoic acid] | 40 to 60% | – | 20 to 40% | 60 to 80% | – | 20 to 40% | 20 to 40% | + (20% to 40% inhibition = +) | +++ (60% to 80% inhibition = +++) | – | – | – | –
CC(=O)Nc1ccc(S(=O)(=O)N(Cc2ccccc2)CC2CCC(C(=O)O)CC2)cc1 (stereo not drawn) [Example 5-21, 4-((4-acetamido-N-benzylphenylsulfonamido)methyl)-cyclohexanecarboxylic acid] | 20 to 40% | + (20% to 40% inhibition = +) | 60 to 80% | 20 to 40% | 1.62 µM | 20 to 40% | – | ++ (40% to 60% inhibition = ++) | +++ (60% to 80% inhibition = +++) | > 80% | 20 to 40% | 20 to 40% | –
Cc1ccc(S(=O)(=O)N(Cc2ccc(F)cc2)Cc2ccc(C(=O)O)cc2)cc1 [Example 5-37, 4-((N-(4-fluorobenzyl)-4-methylphenylsulfonamido)methyl)benzoic acid] | 60 to 80% | ++++ (80% or greater inhibition = ++++) | – | 60 to 80% | 0.054 µM | – | 20 to 40% | – | + (20% to 40% inhibition = +) | > 80% | 20 to 40% | 20 to 40% | screening result against bitter receptor 65 (hT2R65; [9]): ++ (40% to 60% inhibition = ++); inhibition at 25 µM (hT2R5; [12]): 20 to 40%
COc1cccc(CN(Cc2ccc(C(=O)O)cc2)S(=O)(=O)c2ccc(O)cc2)c1 [Example 5-43, 4-((4-hydroxy-N-(3-methoxybenzyl)phenylsulfonamido)methyl)-benzoic acid] | 20 to 40% | + (20% to 40% inhibition = +) | > 80% | 60 to 80% | 0.188 µM | 40 to 60% | – | + (20% to 40% inhibition = +) | ++++ (80% or greater inhibition = ++++) | > 80% | 20 to 40% | 20 to 40% | –
CCOc1ccc(CN(Cc2ccccc2)S(=O)(=O)c2ccc(C(=O)O)cc2)cc1 [Example 5-108, 4-(N-benzyl-N-(4-ethoxybenzyl)sulfamoyl)benzoic acid] | – | – | – | – | – | – | – | – | – | – | – | – | inhibition of bitter receptor 54 (hT2R54; [13]): + (20% to 40% inhibition = +); inhibition of bitter receptor 67 (hT2R67): + (20% to 40% inhibition = +); inhibition at 25 µM (hT2R4; receptor activated to EC80 with agonist, read-out: inhibition of bitter receptor 4): 60 to 80%; inhibition at 25 µM (hT2R16; receptor activated to EC80 with agonist, read-out: inhibition of bitter receptor 16): 20 to 40%; inhibition of bitter receptor 65 (hT2R65; [13]): ++ (40% to 60% inhibition = ++); inhibition of bitter receptor 55 (hT2R55; [13]): ++++ (80% or greater inhibition = ++++); inhibition at 25 µM (hT2R61; receptor activated to EC80 with agonist, read-out: inhibition of bitter receptor 61): > 80%; inhibition at 25 µM (hT2R64; receptor activated to EC80 with agonist, read-out: inhibition of bitter receptor 64): > 80%; inhibition at 25 µM (hT2R3; receptor activated to EC80 with agonist, read-out: inhibition of bitter receptor 3): 40 to 60%; inhibition at 25 µM (hT2R10; HEK293, read-out: inhibition of bitter receptor 10, compound at 25 μM, receptor activated to EC80 with agonist): 40 to 60%; inhibition at 25 µM (hT2R71; receptor activated to EC80 with agonist, read-out: inhibition of bitter receptor 71): 60 to 80%; inhibition at 25 µM (hT2R7; receptor activated to EC80 with agonist, read-out: inhibition of bitter receptor 7): 20 to 40%; inhibition of bitter receptor 44 (hT2R44; [13]): +++ (60% to 80% inhibition = +++); inhibition at 25 µM (hT2R14 [2]; receptor activated to EC80 with agonist, read-out: inhibition of bitter receptor 14): > 80%; inhibition at 25 µM (hT2R51; receptor activated to EC80 with agonist, read-out: inhibition of bitter receptor 51): 40 to 60%; inhibition at 25 µM (hT2R5; receptor activated to EC80 with agonist, read-out: inhibition of bitter receptor 5): 20 to 40%; inhibition of bitter receptor 63 (hT2R63; [13]): +++ (60% to 80% inhibition = +++)
